Experimental data taken from patent US20150307520A1, “NOVEL HETEROARYL AND HETEROCYCLE COMPOUNDS, COMPOSITIONS AND METHODS THEREOF” (HUTCHISON MEDIPHARMA LIMITED, priority 2012, published 2015).

Tests used:
Assay type in all cases: biochemical
p110β/p85α = p110β/p85α (Homo sapiens, UniProt P42338); test: Transcreener KINASE Assay, kinase inhibition of p110β/p85α; settings: for PI3Kβ IH % @ 1 uM: 1 uM test compound; for IC50: read-out: PI3Kβ IC50
In short: (§1)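 ADP production was read by fluorescence polarization immunoassay (60 min detection step) after an 80 min room-temperature reaction of p110/p85α enzyme, compound in 2% DMSO, and PIP2/ATP solution (30 uM/10 uM as added) in HEPES buffer with MgCl2 and DTT. IC50s came from inhibition versus the DMSO control.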

p110δ/p85α = p110δ/p85α (Homo sapiens, UniProt O00329); test: Transcreener KINASE Assay, kinase inhibition of p110δ/p85α; settings: for PI3Kδ IH % @ 1 uM: 1 uM test compound; for IC50: read-out: PI3Kδ IC50
Chain of p110δ/p85α (O00329 whole entry): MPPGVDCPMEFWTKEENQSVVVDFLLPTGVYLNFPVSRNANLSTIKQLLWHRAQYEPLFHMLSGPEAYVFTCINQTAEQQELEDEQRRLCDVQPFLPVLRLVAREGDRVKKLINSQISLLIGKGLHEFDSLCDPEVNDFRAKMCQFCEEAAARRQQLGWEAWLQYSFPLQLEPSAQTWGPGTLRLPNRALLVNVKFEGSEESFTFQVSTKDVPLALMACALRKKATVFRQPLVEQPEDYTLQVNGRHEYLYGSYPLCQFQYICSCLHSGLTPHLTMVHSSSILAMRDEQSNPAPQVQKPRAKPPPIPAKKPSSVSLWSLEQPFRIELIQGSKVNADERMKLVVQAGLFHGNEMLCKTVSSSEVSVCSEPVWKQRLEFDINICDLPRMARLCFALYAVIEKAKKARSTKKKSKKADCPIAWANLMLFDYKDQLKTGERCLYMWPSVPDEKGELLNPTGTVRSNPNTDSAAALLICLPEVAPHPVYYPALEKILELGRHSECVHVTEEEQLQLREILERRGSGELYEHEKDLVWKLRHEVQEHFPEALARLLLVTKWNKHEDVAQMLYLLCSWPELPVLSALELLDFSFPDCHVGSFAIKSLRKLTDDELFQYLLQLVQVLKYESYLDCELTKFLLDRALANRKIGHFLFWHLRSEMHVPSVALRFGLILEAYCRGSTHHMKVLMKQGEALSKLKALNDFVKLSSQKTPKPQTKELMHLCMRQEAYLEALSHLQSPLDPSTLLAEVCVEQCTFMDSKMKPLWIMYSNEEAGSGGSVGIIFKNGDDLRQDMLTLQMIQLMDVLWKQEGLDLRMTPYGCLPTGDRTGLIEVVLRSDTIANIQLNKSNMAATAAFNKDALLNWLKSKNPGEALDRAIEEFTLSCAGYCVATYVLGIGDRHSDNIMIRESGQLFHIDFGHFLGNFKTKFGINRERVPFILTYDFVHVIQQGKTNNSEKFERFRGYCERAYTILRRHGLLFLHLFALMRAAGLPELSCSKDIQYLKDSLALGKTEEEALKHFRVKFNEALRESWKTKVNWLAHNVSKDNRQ
Chain of p110δ/p85α (P27986 whole entry partner): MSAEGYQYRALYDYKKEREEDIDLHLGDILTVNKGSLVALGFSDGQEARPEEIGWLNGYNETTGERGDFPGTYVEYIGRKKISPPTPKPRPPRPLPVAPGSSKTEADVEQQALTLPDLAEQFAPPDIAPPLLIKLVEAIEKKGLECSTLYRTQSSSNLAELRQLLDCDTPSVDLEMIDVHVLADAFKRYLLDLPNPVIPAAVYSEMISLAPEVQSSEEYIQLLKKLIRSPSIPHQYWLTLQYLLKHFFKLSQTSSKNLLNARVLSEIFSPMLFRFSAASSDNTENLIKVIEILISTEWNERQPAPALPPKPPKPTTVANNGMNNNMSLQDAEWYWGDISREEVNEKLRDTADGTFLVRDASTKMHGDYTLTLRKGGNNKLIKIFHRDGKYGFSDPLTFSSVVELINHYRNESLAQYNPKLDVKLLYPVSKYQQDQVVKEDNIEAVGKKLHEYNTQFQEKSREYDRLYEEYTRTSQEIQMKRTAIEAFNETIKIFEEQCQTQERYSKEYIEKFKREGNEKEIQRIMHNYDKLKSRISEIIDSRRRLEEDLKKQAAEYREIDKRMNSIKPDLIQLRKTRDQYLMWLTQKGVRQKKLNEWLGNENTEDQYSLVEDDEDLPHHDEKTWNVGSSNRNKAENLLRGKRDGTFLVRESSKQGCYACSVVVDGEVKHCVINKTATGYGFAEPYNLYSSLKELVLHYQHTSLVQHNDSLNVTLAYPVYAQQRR
In short: as §1

p110γ = p110γ (Homo sapiens, UniProt P48736); test: Transcreener KINASE Assay, kinase inhibition of p110γ; settings: for PI3Kγ IH % @ 1 uM: 1 uM test compound; for IC50: read-out: PI3Kγ IC50
Chain of p110γ (P48736 whole entry): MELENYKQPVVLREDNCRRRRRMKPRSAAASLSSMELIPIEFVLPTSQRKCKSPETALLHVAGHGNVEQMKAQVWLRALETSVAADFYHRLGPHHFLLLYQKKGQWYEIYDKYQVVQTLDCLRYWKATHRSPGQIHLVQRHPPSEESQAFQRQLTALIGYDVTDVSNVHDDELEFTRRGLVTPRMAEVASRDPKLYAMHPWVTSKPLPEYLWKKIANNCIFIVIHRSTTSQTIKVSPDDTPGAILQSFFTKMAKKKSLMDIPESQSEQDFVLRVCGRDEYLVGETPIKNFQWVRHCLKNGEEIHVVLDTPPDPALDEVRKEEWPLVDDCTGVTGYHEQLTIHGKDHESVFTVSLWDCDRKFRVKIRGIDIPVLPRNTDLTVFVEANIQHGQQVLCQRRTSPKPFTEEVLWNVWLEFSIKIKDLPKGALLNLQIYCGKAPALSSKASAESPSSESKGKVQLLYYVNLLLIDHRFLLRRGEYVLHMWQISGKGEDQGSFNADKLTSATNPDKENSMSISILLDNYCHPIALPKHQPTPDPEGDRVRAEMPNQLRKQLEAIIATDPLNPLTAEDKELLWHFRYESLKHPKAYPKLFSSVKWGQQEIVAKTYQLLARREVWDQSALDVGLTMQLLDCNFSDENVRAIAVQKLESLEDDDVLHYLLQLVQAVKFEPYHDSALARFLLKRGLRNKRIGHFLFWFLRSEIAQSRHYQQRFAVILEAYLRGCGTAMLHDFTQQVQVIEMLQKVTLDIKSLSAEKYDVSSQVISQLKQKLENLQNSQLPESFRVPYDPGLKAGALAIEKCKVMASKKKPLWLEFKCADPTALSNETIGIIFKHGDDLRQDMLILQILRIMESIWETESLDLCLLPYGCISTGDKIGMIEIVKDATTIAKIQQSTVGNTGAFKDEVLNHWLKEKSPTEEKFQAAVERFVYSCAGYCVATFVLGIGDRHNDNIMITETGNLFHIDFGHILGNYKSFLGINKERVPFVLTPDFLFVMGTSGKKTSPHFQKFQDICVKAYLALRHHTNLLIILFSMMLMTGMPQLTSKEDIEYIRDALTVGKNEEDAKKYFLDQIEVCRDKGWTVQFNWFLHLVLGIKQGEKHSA
In short: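 Steps: enzyme reaction with compound, 80 min at room temperature; add ADP detection reagent, incubate 60 min at room temperature; read fluorescence polarization. Inhibition and IC50 values are derived from the ADP signal.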

Chain of p110β/p85α (P42338 whole entry): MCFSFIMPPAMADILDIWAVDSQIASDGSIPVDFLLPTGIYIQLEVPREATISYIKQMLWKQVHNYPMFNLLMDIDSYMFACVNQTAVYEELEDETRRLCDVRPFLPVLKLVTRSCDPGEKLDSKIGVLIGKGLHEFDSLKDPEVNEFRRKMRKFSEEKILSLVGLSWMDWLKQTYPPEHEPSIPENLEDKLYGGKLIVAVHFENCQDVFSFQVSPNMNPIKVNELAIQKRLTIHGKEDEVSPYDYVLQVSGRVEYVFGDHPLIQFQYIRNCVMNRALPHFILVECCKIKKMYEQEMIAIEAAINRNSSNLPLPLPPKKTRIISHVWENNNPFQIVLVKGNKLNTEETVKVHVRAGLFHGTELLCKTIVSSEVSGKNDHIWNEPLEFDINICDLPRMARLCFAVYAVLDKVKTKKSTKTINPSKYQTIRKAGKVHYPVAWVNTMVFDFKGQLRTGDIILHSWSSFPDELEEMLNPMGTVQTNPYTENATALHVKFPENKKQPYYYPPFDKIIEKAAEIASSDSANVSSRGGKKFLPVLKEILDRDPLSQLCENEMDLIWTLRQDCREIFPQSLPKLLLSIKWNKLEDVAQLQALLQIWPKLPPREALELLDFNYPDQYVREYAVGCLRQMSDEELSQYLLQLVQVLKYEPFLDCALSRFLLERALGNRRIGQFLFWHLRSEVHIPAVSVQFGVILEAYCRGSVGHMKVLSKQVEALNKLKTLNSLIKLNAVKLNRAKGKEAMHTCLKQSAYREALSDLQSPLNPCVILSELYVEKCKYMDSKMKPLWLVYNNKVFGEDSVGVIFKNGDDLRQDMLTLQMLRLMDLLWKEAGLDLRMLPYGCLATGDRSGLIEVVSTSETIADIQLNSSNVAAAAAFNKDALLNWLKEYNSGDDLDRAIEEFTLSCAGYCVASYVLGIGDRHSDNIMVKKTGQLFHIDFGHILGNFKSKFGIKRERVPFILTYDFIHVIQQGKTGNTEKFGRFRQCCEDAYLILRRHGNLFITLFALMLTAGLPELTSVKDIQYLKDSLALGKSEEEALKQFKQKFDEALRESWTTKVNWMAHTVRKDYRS
Chain of p110β/p85α (P27986 2-724 partner): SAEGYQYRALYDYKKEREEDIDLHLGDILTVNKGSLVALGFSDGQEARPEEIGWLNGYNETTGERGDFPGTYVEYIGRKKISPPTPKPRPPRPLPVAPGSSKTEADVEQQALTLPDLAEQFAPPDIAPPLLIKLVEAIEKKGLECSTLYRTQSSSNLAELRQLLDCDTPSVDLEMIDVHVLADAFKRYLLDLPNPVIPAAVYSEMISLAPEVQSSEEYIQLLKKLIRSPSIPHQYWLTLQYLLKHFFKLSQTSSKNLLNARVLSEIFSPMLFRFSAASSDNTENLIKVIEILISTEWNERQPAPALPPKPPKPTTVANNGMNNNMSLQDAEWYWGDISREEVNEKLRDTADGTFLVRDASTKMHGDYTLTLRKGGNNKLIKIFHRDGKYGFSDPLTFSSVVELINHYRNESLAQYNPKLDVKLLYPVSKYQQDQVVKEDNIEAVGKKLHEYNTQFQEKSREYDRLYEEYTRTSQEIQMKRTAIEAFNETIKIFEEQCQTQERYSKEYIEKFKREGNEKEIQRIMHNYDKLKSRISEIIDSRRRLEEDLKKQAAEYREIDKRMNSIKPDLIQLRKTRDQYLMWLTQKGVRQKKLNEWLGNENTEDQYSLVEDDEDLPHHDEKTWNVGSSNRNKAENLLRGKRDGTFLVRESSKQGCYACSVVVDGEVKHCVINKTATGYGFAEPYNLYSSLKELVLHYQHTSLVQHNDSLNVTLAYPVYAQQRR

SMILES	PI3Kβ IH % @ 1 uM (p110β/p85α)	PI3Kδ IH % @ 1 uM (p110δ/p85α)	PI3Kγ IH % @ 1 uM (p110γ)	IC50 (p110δ/p85α)	IC50 (p110γ)	IC50 (p110β/p85α)
COc1ccc(-c2c(N)ncnc2N2CC[C@H]2c2nn3ccc(Cl)c3c(=O)n2-c2ccccc2)cn1 [Compound 108, (S)-2-(1-(6-amino-5-(6-methoxypyridin-3-yl)pyrimidin-4-yl)azetidin-2-yl)-5-chloro-3-phenylpyrrolo[2,1-f][1,2,4]triazin-4(3H)-one]	26.9%	75.9%	90.0%	–	–	–
COc1ccc(-c2n[nH]c3ncnc(N4CCC[C@H]4c4nn5ccc(Cl)c5c(=O)n4-c4ccccc4)c23)cn1 [Compound 109]	61.0%	99.8%	98.3%	4 nM	192 nM	–
N#Cc1n[nH]c2ncnc(N3CCC[C@H]3c3nn4ccc(Cl)c4c(=O)n3-c3ccccc3)c12 [Compound 111, (S)-4-(2-(5-chloro-4-oxo-3-phenyl-3,4-dihydropyrrolo[2,1-f][1,2,4]triazin-2-yl)pyrrolidin-1-yl)-1H-pyrazolo[3,4-d]pyrimidine-3-carbonitrile]	39.0%	93.9%	67.2%	45 nM	–	–
O=c1c2c(Cl)ccn2nc([C@@H]2CCN2c2nc(N3CCOCC3)nc3[nH]cnc23)n1-c1ccccc1 [Compound 114, (S)-5-chloro-2-(1-(2-morpholino-9H-purin-6-yl)azetidin-2-yl)-3-phenylpyrrolo[2,1-f][1,2,4]triazin-4(3H)-one]	86.4%	93.7%	4.3%	27 nM	–	159 nM
CC(Nc1ncnc2[nH]cnc12)c1cc2ncc(Cl)n2c(=O)n1-c1ccccc1 (stereo not drawn) [Compound 115, 7-(1-(9H-purin-6-ylamino)ethyl)-3-chloro-6-phenylimidazo[1,2-c]pyrimidin-5(6H)-one]	80.2%	>100%	91.7%	2 nM	3 nM	143 nM
CC(Nc1ncnc2[nH]cc(C#N)c12)c1cc2ncc(Cl)n2c(=O)n1-c1ccccc1 (stereo not drawn) [Compound 116]	>100%	>100%	96.9%	5 nM	45 nM	128 nM
CC(Nc1ncnc(N)c1C#N)c1cc2ncc(Cl)n2c(=O)n1-c1ccccc1 (stereo not drawn) [Compound 117]	>100%	>100%	>100%	5 nM	43 nM	38 nM
CC(Nc1ncnc2[nH]cc(C#N)c12)c1cc2ncc(Cl)n2c(=O)n1-c1cccc(F)c1 (stereo not drawn) [Compound 118]	19.1%	77.5%	5.2%	471 nM	–	–
CC(Nc1ncnc2[nH]cnc12)c1cc2cccn2c(=O)n1-c1ccccc1 (stereo not drawn) [Compound 119, 3-(1-(9H-purin-6-ylamino)ethyl)-2-phenylpyrrolo[1,2-c]pyrimidin-1(2H)-one]	47.8%	94.3%	85.6%	–	239 nM	–
CC(Nc1ncnc(N)c1C#N)c1cc2cccn2c(=O)n1-c1ccccc1 (stereo not drawn) [Compound 120]	74.7%	>100%	85.9%	–	295 nM	237 nM
CC(Nc1ncnc2[nH]cnc12)c1cc2ccc(Cl)n2c(=O)n1-c1ccccc1 (stereo not drawn) [Compound 122, 3-(1-(9H-purin-6-ylamino)ethyl)-7-chloro-2-phenylpyrrolo[1,2-c]pyrimidin-1(2H)-one]	88.3%	>100%	>100%	3 nM	8 nM	51 nM
CC(Nc1ncnc2[nH]cc(C#N)c12)c1cc2ccc(Cl)n2c(=O)n1-c1ccccc1 (stereo not drawn) [Compound 124]	95.0%	98.0%	>100%	2 nM	12 nM	22 nM
CC(Nc1ncnc(N)c1C#N)c1cc2ccc(Cl)n2c(=O)n1-c1ccccc1 (stereo not drawn) [Compound 125]	95.7%	>100%	94.0%	1 nM	3 nM	6 nM
CC(Nc1ncnc(N)c1C#N)c1cc2c(Cl)cc(Cl)n2c(=O)n1-c1ccccc1 (stereo not drawn) [Compound 126]	90.9%	>100%	>100%	1 nM	20 nM	25 nM
CC(Nc1ncnc2[nH]cc(C#N)c12)c1cc2c(Cl)cc(Cl)n2c(=O)n1-c1cccc(F)c1 (stereo not drawn) [Compound 129]	17.8%	97.8%	33.3%	18 nM	–	–
O=c1c2c(F)ccn2nc([C@@H]2C[C@H](F)CN2c2ncnc3[nH]cnc23)n1-c1ccccc1 [Compound 132, 5-fluoro-2-((2S,4S)-4-fluoro-1-(9H-purin-6-yl)pyrrolidin-2-yl)-3-phenylpyrrolo[2,1-f][1,2,4]triazin-4(3H)-one]	74.5%	>100%	>100%	9 nM	70 nM	338 nM
CCc1ccn2nc([C@@H]3CCN3c3ncnc4[nH]cc(C#N)c34)n(-c3ccccc3)c(=O)c12 [Compound 133, (S)-4-(2-(5-ethyl-4-oxo-3-phenyl-3,4-dihydropyrrolo[2,1-f][1,2,4]triazin-2-yl)azetidin-1-yl)-7H-pyrrolo[2,3-d]pyrimidine-5-carbonitrile]	11.5%	88.1%	65.9%	172 nM	–	–
Nc1nc(N2CCC[C@H]2c2nn3ccc(Cl)c3c(=O)n2-c2ccccc2)n2nccc2n1 [Compound 134, (S)-2-(1-(2-aminopyrazolo[1,5-a][1,3,5]triazin-4-yl)pyrrolidin-2-yl)-5-chloro-3-phenylpyrrolo[2,1-f][1,2,4]triazin-4(3H)-one]	59.2%	>100%	>100%	5 nM	30 nM	–
Nc1nc(N2CC[C@H]2c2nn3ccc(Br)c3c(=O)n2-c2ccccc2)n2nccc2n1 [Compound 135]	20.6%	74.5%	>100%	51 nM	12 nM	–
Nc1nc(N2CC(F)(F)C[C@H]2c2nn3ccc(Cl)c3c(=O)n2-c2ccccc2)n2nccc2n1 [Compound 136]	27.6%	83.5%	95.0%	124 nM	42 nM	–
Nc1nc(N2CC[C@H]2c2nn3ccc(Cl)c3c(=O)n2-c2ccccc2)n2nccc2n1 [Compound 137]	35.9%	96.8%	89.3%	36 nM	13 nM	–
Nc1ncnc(N2CCC[C@H]2c2nn3ccc(Cl)c3c(=O)n2-c2ccccc2)n1 [Compound 138, (S)-2-(1-(4-amino-1,3,5-triazin-2-yl)pyrrolidin-2-yl)-5-chloro-3-phenylpyrrolo[2,1-f][1,2,4]triazin-4(3H)-one]	42.3%	>100%	95.0%	12 nM	75 nM	–
NC(=O)c1ccn2nc([C@@H]3CCCN3c3ncnc4[nH]cnc34)n(-c3ccccc3)c(=O)c12 [Compound 139, (S)-2-(1-(9H-purin-6-yl)pyrrolidin-2-yl)-4-oxo-3-phenyl-3,4-dihydropyrrolo[2,1-f][1,2,4]triazine-5-carboxamide]	18.0%	64.8%	46.5%	–	–	–
N#Cc1c[nH]c2ncnc(N3CCC[C@H]3c3nn4ccc(C(N)=O)c4c(=O)n3-c3ccccc3)c12 [Compound 140]	15.0%	>100%	82.3%	51 nM	116 nM	–
N#Cc1c(N)ncnc1N1CC(F)(F)C[C@H]1c1nn2ccc(Cl)c2c(=O)n1-c1ccccc1 [Compound 141]	28.2%	>100%	92.3%	5 nM	151 nM	–
O=c1c2c(Cl)ccn2nc([C@@H]2CCN2c2ncnc3[nH]ccc23)n1-c1ccccc1 [Compound 142]	13.5%	81.1%	75.5%	298 nM	390 nM	–
CS(=O)(=O)c1c[nH]c2ncnc(N3CC[C@H]3c3nn4ccc(Cl)c4c(=O)n3-c3ccccc3)c12 [Compound 143]	63.0%	88.8%	82.3%	70 nM	95 nM	–
CS(=O)(=O)c1c[nH]c2ncnc(N3CCC[C@H]3c3nn4ccc(Cl)c4c(=O)n3-c3ccccc3)c12 [Compound 144]	62.5%	>100%	94.1%	5 nM	44 nM	–
O=c1c2c(Cl)ccn2nc([C@@H]2CCCN2c2ncnc3[nH]ccc23)n1-c1ccccc1 [Compound 145]	55.5%	>100%	>100%	2 nM	9 nM	–
